Consider 14 compounds from US20220041606A1, “POSITIVE ALLOSTERIC MODULATORS OF THE MUSCARINIC ACETYLCHOLINE RECEPTOR M1” (Vanderbilt University, priority 2020, published 2022).

Experiment [1] has as its target T1, human mAChR M1 (Homo sapiens, UniProt P11229).
T1 construct: host or cells: CHO-K1 cells (ATCC), stably transfected using Lipofectamine2000
T1 sequence (P11229 1-460): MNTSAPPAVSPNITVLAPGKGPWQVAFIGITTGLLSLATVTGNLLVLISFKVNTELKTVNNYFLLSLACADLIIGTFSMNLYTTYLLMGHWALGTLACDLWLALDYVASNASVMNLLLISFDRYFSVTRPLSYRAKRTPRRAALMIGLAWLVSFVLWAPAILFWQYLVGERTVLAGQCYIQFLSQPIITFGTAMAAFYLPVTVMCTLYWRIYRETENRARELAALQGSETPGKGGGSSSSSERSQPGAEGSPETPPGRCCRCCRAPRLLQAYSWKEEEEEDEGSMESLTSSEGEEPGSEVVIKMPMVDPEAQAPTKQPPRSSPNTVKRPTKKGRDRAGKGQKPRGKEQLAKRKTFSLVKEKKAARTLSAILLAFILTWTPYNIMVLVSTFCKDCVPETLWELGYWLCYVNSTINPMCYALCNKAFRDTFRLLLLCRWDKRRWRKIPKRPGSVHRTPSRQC
Put plainly: mAChR M1 cell-based functional assay (calcium mobilization), PAM activity: increase in the EC20 acetylcholine response. Conditions: CHO-K1 cells expressing hM1; potentiation of EC20 acetylcholine response. The source says:
(§1) Chinese hamster ovary (CHO-K1) cells stably expressing rat (r)M1 were purchased from the American Type Culture Collection and cultured according to their indicated protocol. CHO cells stably expressing human (h)M2, hM3, and hM5 were described previously (Levey, et al., 1991); hM1 and hM4 cDNAs were purchased from Missouri S&T cDNA Resource; rM4 cDNA was provided by T. L. Bonner (National Institutes of Health, Bethesda, MID). rM2 and rM3 were cloned from a rat brain cDNA library and sequence verified. hM1, rM2, rM3, hM4, and rM4 cDNAs were used to stably transfect CHO-K1 cells purchased from the American Type Culture Collection using Lipofectamine2000. To make stable rM2, hM2, rM3, hM4, and rM4 cell lines for use in calcium mobilization assays, these cells also were stably transfected with a chimeric G-protein (Gqi5) (provided by B. R. Conklin, University of California, San Francisco) using Lipofectamine 2000. rM1, hM1, rM3, hM3, rM5, and hM5 cells were grown in Ham's F-12 medium containing 10% heat-inactivated fetal bovine serum (FBS), 20 mM HEPES, and 50 μg/mL G418 sulfate. rM2-Gq15, hM2-Gqi5, and hM4-Gqi5 cells were grown in the same medium also containing 500 μg/mL Hygromycin B. Stable rM4-Gqi5 cells were grown in DMEM containing 10% heat-inactivated FBS, 20 mM HEPES, 400 μg/mL G418 sulfate, and 500 μg/mL Hygromycin B.
(§2) For high throughput measurement of agonist-evoked increases in intracellular calcium, CHO-K1 cells stably expressing muscarinic receptors were plated in growth medium lacking G418 and hygromycin at 15,000 cells/20 μL/well in Greiner 384-well black-walled, tissue culture (TC)-treated, clear-bottom plates (VWR). Cells were incubated overnight at 37° C. and 5% CO2. The next day, cells were washed using an ELX 405 (BioTek) with four washes (80 μL) of assay buffer then aspirated to 20 μL. Next, 20 μL of 16 μM Fluo-4/acetoxymethyl ester (Invitrogen, Carlsbad, Calif.) prepared as a 2.3 mM stock in DMSO and mixed in a 1:1 ratio with 10% (w/v) Pluronic F-127 and diluted in assay buffer was added to the wells and the cell plates were incubated for 50 min at 37° C. and 5% CO2. Dye was removed by washing with the ELX 405 (four 80 μL washes of assay buffer) then aspirated to 20 μL. Compound master plates were formatted in an 11 point CRC format (1:3 dilutions) in 100% DMSO with a starting concentration of 10 mM using the BRAVO liquid handler (Agilent). Test compound CRCs were then transferred to daughter plates (240 nL) using the Echo acoustic plate reformatter (Labcyte, Sunnyvale, Calif.) and then diluted into assay buffer (40 μL) to a 2× stock using a Thermo Fisher Combi (Thermo Fisher Scientific, Waltham, Mass.).
(§3) Calcium flux was measured using the Functional Drug Screening System (FDSS) 6000 (Hamamatsu Corporation, Tokyo, Japan) as an increase in the fluorescent static ratio. Compounds were applied to cells (20 μL, 2×) using the automated system of the FDSS 6000 at 4 s into the 300 s protocol and the data were collected at 1 Hz. At 144 s into the 300s protocol, 10 μL of an EC20 concentration of the muscarinic receptor agonist acetylcholine was added (5×), followed by the addition of 12 μL an EC80 concentration of acetylcholine at the 230 s time point (5×). Agonist activity was analyzed as a concentration-dependent increase in calcium mobilization upon compound addition. Emax values for agonist activity are expressed relative to the maximum for acetylcholine. Positive allosteric modulator activity was analyzed as a concentration-dependent increase in the EC20 acetylcholine response. Antagonist activity was analyzed as a concentration-dependent decrease in the EC80 acetylcholine response. Concentration-response curves were generated using a four-parameter logistical equation in XLfit curve fitting software (IDBS, Bridgewater, N.J.) for Excel (Microsoft, Redmond, Wash.) or Prism (GraphPad Software, Inc., San Diego, Calif.). […]
A general note: A change in cytosolic calcium serves as a functional read-out for many receptors and channels.

In experiment [2] the target is T1, human mAChR M1. Put plainly: mAChR M1 cell-based functional assay (calcium mobilization), agonist activity upon compound addition. The settings on record: CHO-K1 cells expressing hM1; for EC50: compound alone, before acetylcholine addition; for Emax: relative to the maximum for acetylcholine.
Text: as §1, §2, §3

`Cn1cc(-c2ccc(Cn3cc(C(=O)N[C@@H]4CC[C@H]4O)c4occc4c3=O)c(F)c2)cn1` (stereo in doubt) [Compound D15, 5-(2-fluoro-4-(1-methyl-1H-pyrazol-4-yl)benzyl)-N-((1R,2R)-2-hydroxycyclobutyl)-4-oxo-4,5-dihydrofuro[3,2-c]pyridine-7-carboxamide]: in experiment [1], the EC50 (in general, the concentration needed to bring the measured effect to its halfway point) was greater than 10 µM and the Emax (in general, the greatest response seen or fitted, relative to the assay's reference) stood at 29%. In experiment [2], the EC50 is greater than 10 µM and the Emax was less than 5%.

For `Cn1cc2c(-c3cc(F)c(Cn4cc(C(=O)N[C@@H]5CC[C@H]5O)c5occc5c4=O)c(F)c3)cccc2n1` (stereo in doubt) [Compound D21, 5-(2,6-difluoro-4-(2-methyl-2H-indazol-4-yl)benzyl)-N-((1R,2R)-2-hydroxycyclobutyl)-4-oxo-4,5-dihydrofuro[3,2-c]pyridine-7-carboxamide], in experiment [1], the EC50 was 2.19 µM and the Emax amounted to 75%. Further, in experiment [2], the concentration giving a half-maximal response (EC50) is greater than 10 µM and the Emax was less than 5%.

In the case of `Cn1ccc(-c2ccc(Cn3cc(C(=O)N[C@H]4CCOC[C@@H]4O)c4ncccc4c3=O)c(F)c2)n1` [Compound A1, 6-(2-Fluoro-4-(1-methyl-1H-pyrazol-3-yl)benzyl)-N-((3R,4S)-3-hydroxytetrahydro-2H-pyran-4-yl)-5-oxo-5,6-dihydro-1,6-naphthyridine-8-carboxamide], in experiment [1], the EC50 stood at 0.48 µM and the Emax came to 90%. Moreover, in experiment [2], the concentration for a half-maximal effect (EC50) came out at 7.9 µM and the maximal effect (Emax) came out at 20%.

As to `Cn1ccc(-c2ccc(Cn3cc(C(=O)N[C@H]4CCCC[C@@H]4O)c4ncccc4c3=O)c(F)c2)n1` [Compound A2, 6-(2-fluoro-4-(1-methyl-1H-pyrazol-3-yl)benzyl)-N-((1S,2S)-2-hydroxycyclohexyl)-5-oxo-5,6-dihydro-1,6-naphthyridine-8-carboxamide], the concentration giving a half-maximal response (EC50) in experiment [1] was 0.73 µM; in experiment [2], greater than 10 µM. Also, the figures for the Emax in experiment [1] and in experiment [2] were 91% and less than 5%, respectively.

As for `Cn1ccc(-c2ccc(Cn3cc(C(=O)N[C@H]4CCC[C@@H]4O)c4ncccc4c3=O)c(F)c2)n1` [Compound A3, 6-(2-fluoro-4-(1-methyl-1H-pyrazol-3-yl)benzyl)-N-((1S,2S)-2-hydroxycyclopentyl)-5-oxo-5,6-dihydro-1,6-naphthyridine-8-carboxamide], the values for the EC50 in experiment [1] and in experiment [2] were 1.66 µM and greater than 10 µM, respectively. The Emax is 83% in experiment [1] and less than 5% in experiment [2].

As to `Cn1ccc(-c2ccc(Cn3cc(C(=O)N[C@@H]4CC[C@H]4O)c4ncccc4c3=O)c(F)c2)n1` [Compound A4, 6-(2-fluoro-4-(1-methyl-1H-pyrazol-3-yl)benzyl)-N-((1R,2R)-2-hydroxycyclobutyl)-5-oxo-5,6-dihydro-1,6-naphthyridine-8-carboxamide], in experiment [1], the EC50 is 3.45 µM and the Emax was determined as 42%. In experiment [2], the EC50 was greater than 10 µM and the Emax was less than 5%.

On to `Cn1ccc(-c2ccc(Cn3cc(C(=O)NC4CC5(COC5)C4)c4ncccc4c3=O)c(F)c2)n1` [Compound A5, 6-(2-Fluoro-4-(1-methyl-1H-pyrazol-3-yl)benzyl)-5-oxo-N-(2-oxaspiro[3.3]heptan-6-yl)-5,6-dihydro-1,6-naphthyridine-8-carboxamide], for which the EC50 in experiment [1] was 2.74 µM; in experiment [2] it was greater than 10 µM. In addition, the results for the Emax in experiment [1] and in experiment [2] were 44% and less than 5%, respectively.

For the compound `Cn1cc(-c2ccc(Cn3cc(C(=O)N[C@H]4CCOC[C@@H]4O)c4ncccc4c3=O)c(F)c2)cn1` [Compound A6, 6-(2-fluoro-4-(1-methyl-1H-pyrazol-4-yl)benzyl)-N-((3R,4S)-3-hydroxytetrahydro-2H-pyran-4-yl)-5-oxo-5,6-dihydro-1,6-naphthyridine-8-carboxamide], in experiment [1], the EC50 was found to be 0.22 µM and the Emax came out at 89%. Also, in experiment [2], the EC50 came to 8.2 µM and the Emax is 23%.

Turning to `Cn1cc(-c2ccc(Cn3cc(C(=O)N[C@H]4CCCC[C@@H]4O)c4ncccc4c3=O)c(F)c2)cn1` [Compound A7, 6-(2-fluoro-4-(1-methyl-1H-pyrazol-4-yl)benzyl)-N-((1S,2S)-2-hydroxycyclohexyl)-5-oxo-5,6-dihydro-1,6-naphthyridine-8-carboxamide], in experiment [1], the EC50 was determined as 0.29 µM and the maximum response (Emax) came to 89%. The Emax in experiment [2] amounted to 12%.

`Cn1cc(-c2ccc(Cn3cc(C(=O)N[C@H]4CCC[C@@H]4O)c4ncccc4c3=O)c(F)c2)cn1` [Compound A8, 6-(2-fluoro-4-(1-methyl-1H-pyrazol-4-yl)benzyl)-N-((1S,2S)-2-hydroxycyclopentyl)-5-oxo-5,6-dihydro-1,6-naphthyridine-8-carboxamide]: in experiment [1], the EC50 is 1.29 µM and the Emax stood at 83%. Further, in experiment [2], the 50% effective concentration (EC50) was greater than 10 µM and the Emax was less than 5%.

Regarding `Cn1cc(-c2ccc(Cn3cc(C(=O)N[C@@H]4CC[C@H]4O)c4ncccc4c3=O)c(F)c2)cn1` [Compound A9, 6-(2-fluoro-4-(1-methyl-1H-pyrazol-4-yl)benzyl)-N-((1R,2R)-2-hydroxycyclobutyl)-5-oxo-5,6-dihydro-1,6-naphthyridine-8-carboxamide], the results for the EC50 in experiment [1] and in experiment [2] were 5.87 µM and greater than 10 µM, respectively. Besides, the Emax in experiment [1] is 65%; in experiment [2], less than 5%.

Regarding `Cn1cc(-c2ccc(Cn3cc(C(=O)NC4CCOCC4)c4ncccc4c3=O)c(F)c2)cn1` [Compound A10, 6-(2-fluoro-4-(1-methyl-1H-pyrazol-4-yl)benzyl)-5-oxo-N-(tetrahydro-2H-pyran-4-yl)-5,6-dihydro-1,6-naphthyridine-8-carboxamide], in experiment [1], the EC50 was no less than 10 µM and the Emax was 59%. In experiment [2], the EC50 is greater than 10 µM and the Emax was less than 5%.

On to `Cn1cc(-c2ccc(Cn3cc(C(=O)NC4CC5(COC5)C4)c4ncccc4c3=O)c(F)c2)cn1` [Compound A11, 6-(2-fluoro-4-(1-methyl-1H-pyrazol-4-yl)benzyl)-5-oxo-N-(2-oxaspiro[3.3]heptan-6-yl)-5,6-dihydro-1,6-naphthyridine-8-carboxamide], for which, in experiment [1], the EC50 is 6.75 µM and the Emax amounted to 58%. In experiment [2], the EC50 is greater than 10 µM and the Emax is less than 5%.

With `O=C(N[C@H]1CCOC[C@@H]1O)c1cn(Cc2ccc(-n3cccn3)cc2)c(=O)c2cccnc12` [Compound A12, 6-(4-(1H-pyrazol-1-yl)benzyl)-N-((3R,4S)-3-hydroxytetrahydro-2H-pyran-4-yl)-5-oxo-5,6-dihydro-1,6-naphthyridine-8-carboxamide], in experiment [1], the EC50 was found to be 1.39 µM and the Emax came to 70%. Further, the Emax in experiment [2] amounted to 28%.
